Values of other authors in PMC7482441 (Pharmacological Research, 2020).

Legend:
mdx mice = details: cited from earlier work
BIO 14.6 hamster = details: cited from earlier work

## CC(C)c1ccc(C(=O)NC(=N)N)cc1S(C)(=O)=O [Cariporide]
Mdx mice
  creatine kinase (CK) levels, inflammation, fibrosis and histological skeletal muscle damage: markedly reduced
BIO 14.6 hamster
  intracellular Ca2+ levels and Na+ influx: normalised
